Consider 5 molecules from ChEMBL document CHEMBL1201862, “PubChem BioAssay data set” (2004).

Structures are written as SMILES. Active and inactive are the calls of the source.

Assay [1] can be described thus: inhibitors of HIV Env-driven cell fusion, dose response, cherry-pick (AID 652057). In kind it is functional, cell-based.
A short description of assay [2]: off-target signal loss in HeLa-CEM21 co-culture – HeLa F-luc CTL cells, cherry-picked, counter-screen for HIV-1 Env fusion inhibitor project, dose response (AID 652040).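 Further: potency for signal decrease marking cytotoxic or nonspecific inhibition.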 The class given is functional, cell-based. In general terms: A counterscreen serves to expose hits that act by an unwanted route or on another target.
Assay [3] can be described thus: inhibitors of clade B AD8 Env fusion, dose response, cell-based, cherry-pick (AID 652062).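 Further: luciferase signal from cell-cell fusion driven by HIV-1 clade B AD8 Env; potency is for inhibitors of fusion seen as a drop in luminescence.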 The class given is functional.
Assay [4] in a line: ZM109 Env clade C HIV-1 fusion inhibitors, dose response, HeLa effector, CEM target cells, luciferase, cherry-pick (AID 652058). In kind it is functional, cell-based.
For assay [5], the system named is HEK293. The experiment in a line: cells. As to conditions: Homo sapiens.
The subject of assay [6] is HEK293. The experiment in a line: cells. The settings on record: Homo sapiens. This is another data set of the same source.
Assay [7] is described as follows: HepG2 cell cytotoxicity, dose response, cytotoxicity control for Shn3 inhibitor project, CellTiter-Glo, cherry-picked (AID 624134). In kind it is functional, cell-based. For orientation: ATP-based viability assays read luminescence as a measure of living cells.
Assay [8] can be described thus: Shn3 3'UTR reporter inhibitors, dose response, cell-based, Clone20 osteoblasts, firefly luciferase, cherry-picked (AID 624132).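 Further: firefly luciferase luminescence from reporter carrying the Shn3 3'UTR in osteoblasts.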 In kind it is functional.
Assay [9] is described as follows: insulin promoter down-regulators in MIN6 cells, imaging, high-content screening, mouse beta cells (AID 1628). The class given is functional.
Assay [10] can be described thus: control 3'UTR Renilla luciferase suppression, dose response, counter-screen for Shn3 inhibitor project, cell-based, Clone20-Shn3RL, cherry-picked (AID 624133). The class given is functional.
Assay [11] in a line: cytotoxicity in MIN6 insulinoma cells, dose response, cytotoxicity control, cell-based, mouse insulinoma (AID 2122).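 Further: confirmatory high-throughput counterscreen run to flag cytotoxic compounds; mouse MIN-6 beta cells carrying an insulin promoter eGFP reporter.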 The class given is functional.
Assay [12] concerns the target COUP transcription factor 2 (Homo sapiens, UniProt P24468). The experiment in a line: Luminescence-based cell-based high throughput dose response assay to identify inhibitors of COUP-TFII (NR2F2). The class given is functional.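 Further: HEK293 cells transiently cotransfected with COUP-TFII expression vector and reporter; luciferase reporter luminescence driven by COUP-TFII from the pX2-168 reporter plasmid.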
A short description of assay [13]: cytotoxicity in HEK-293T NF-kB-Luc cells, dose response, cytotoxicity control for B/T-cell NF-kB inhibitor project, cell-based, uHTS hits (AID 489019).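 Further: IC50 reflects cytotoxicity as loss of cell viability.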 In kind it is functional.
The subject of the next assay is Jurkat. The experiment in a line: antigen receptor-induced NF-kB inhibitors, dose response, Jurkat, luciferase reporter, luminescence, B- and T-cell (AID 489004).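 Further: NF-kB luciferase reporter Jurkat cells stimulated with PMA plus ionomycin.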 As to conditions: Homo sapiens. The class given is functional, cell-based. Background: In a reporter assay the amount or activity of a reporter protein is the signal.
The nature of assay [14]: reduction of Shn3 3'UTR firefly luciferase signal, dose response, Schnurri-3 inhibitor project, cell-based, Clone20 osteoblasts, cherry-pick, set 2 (AID 720490).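 Further: actives lower the luminescence signal as inhibitors.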 The class given is functional.
In a further assay the test system is INS1. The experiment in a line: beta cell apoptosis inhibitors, cytokine rescue, dose response, luminescence, retest (AID 449756).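 Further: cell death triggered by IL-1 beta plus TNF-alpha plus IFN-gamma mixture; protective hits raise ATP signal compared with cytokine alone wells.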 In kind it is functional, cell-based. The settings on record: Rattus norvegicus.
In assay [15] the target is T1, Serine/threonine-protein phosphatase (Candida dubliniensis (strain CD36 / CBS 7987 / NCPF 3949 / NRRLY-17841) (Yeast), UniProt B9W6M3).
T1 sequence (B9W6M3 whole entry): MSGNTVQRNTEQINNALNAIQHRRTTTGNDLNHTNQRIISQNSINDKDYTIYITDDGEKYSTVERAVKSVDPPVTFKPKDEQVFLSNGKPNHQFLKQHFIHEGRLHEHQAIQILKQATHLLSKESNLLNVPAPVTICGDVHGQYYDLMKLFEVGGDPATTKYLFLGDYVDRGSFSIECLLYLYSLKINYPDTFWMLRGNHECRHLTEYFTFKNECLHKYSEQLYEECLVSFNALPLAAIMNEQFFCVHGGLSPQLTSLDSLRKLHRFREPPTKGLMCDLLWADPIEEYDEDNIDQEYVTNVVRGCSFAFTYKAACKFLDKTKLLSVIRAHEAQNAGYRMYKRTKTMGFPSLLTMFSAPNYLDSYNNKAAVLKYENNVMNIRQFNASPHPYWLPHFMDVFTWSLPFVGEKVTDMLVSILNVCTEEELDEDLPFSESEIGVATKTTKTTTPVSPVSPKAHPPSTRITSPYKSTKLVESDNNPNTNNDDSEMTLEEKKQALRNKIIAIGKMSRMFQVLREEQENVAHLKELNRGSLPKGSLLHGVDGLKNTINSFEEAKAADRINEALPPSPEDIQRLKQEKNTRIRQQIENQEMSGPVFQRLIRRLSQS
The experiment in a line: calcineurin pathway inhibitors in yeast reporter, dose response, S. cerevisiae, CDRE-lacZ, luminescence, secondary (AID 2388).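 Further: yeast reporter cells carrying a calcineurin-responsive lacZ construct stimulated with calcium chloride; luminescent beta-galactosidase reporter signal in whole cells rather than isolated phosphatase activity; potency for inhibition where a drop in reporter signal means calcineurin blockade.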 The class given is functional, cell-based.

For assay [16], the target named is T1, Serine/threonine-protein phosphatase. Kind of assay: Fluorescence Cell-Based Secondary Assay to Identify Inhibitors of Calcineurin. [Related pubchem assays (depositor defined):AID1979, AID2007]. In kind it is functional.
The nature of assay [17]: NIH-3T3 fibroblast cytotoxicity, dose response, cytotoxicity control, cell-based, fluorescence, Alamar Blue, secondary assay (AID 2327).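 Further: NIH-3T3 mouse fibroblasts cultured with fluconazole at 8 µg/mL.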 In kind it is functional.
The nature of assay [18]: C. albicans growth with fluconazole, confirmation, fluorescence, retest (AID 2467). The class given is functional, cell-based.
Assay [19] addresses ATP-dependent molecular chaperone HSP82 (Candida albicans (strain WO-1) (Yeast), UniProt C4YTQ8). Kind of assay: loss of DOC-induced GRE-beta-galactosidase reporter signal, dose response, Hsp90 inhibitor project, S. cerevisiae, luminescence (AID 2400).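 Further: beta-galactosidase luminescence from glucocorticoid response element reporter as proxy for Hsp90 function; inhibitor potency where signal loss means Hsp90 inhibition.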 In kind it is functional, cell-based.
Assay [20] has as its system HEK293. The experiment in a line: cells. In kind it is functional, cell-based. The settings on record: Homo sapiens.
Assay [21] deals with HEK293. The experiment in a line: NOD1 signaling inhibitors, primary screen, cell-based, luminescence, uHTS (AID 1578). The class given is functional. As to conditions: Homo sapiens.
The target in assay [22] is Nucleotide-binding oligomerization domain-containing protein 2 (Homo sapiens, UniProt Q9HC29). The experiment in a line: NOD2 signaling inhibitors, cell-based, luminescence, uHTS, HEK293 (AID 1566). The class given is functional.
Assay [23] deals with HEK293. Kind of assay: cells. In kind it is functional, cell-based. The settings on record: Homo sapiens. This is another data set of the same source.
Assay [24] deals with HEK293. Kind of assay: cells. In kind it is functional, cell-based. The settings on record: Homo sapiens. The source holds these as a separate data set.
Assay [25] deals with HEK293. Kind of assay: NOD2 signaling inhibitors in MDP-stimulated cells, cell-based, uHTS, luminescence (AID 2001). In kind it is functional. The settings on record: Homo sapiens.
Assay [26] is described as follows: Luminescence Cell-Based Dose Response Follow up to Identify Inhibitors of Platelet Dense Granule Release. [Related pubchem assays (depositor defined):AID1663, AID1678, AID1889, AID2519]. In kind it is functional.
Assay [27] can be described thus: blockers of SFLLRN-triggered platelet ATP secretion – cell-based, human platelets, luminescence, dry powder, dose response (AID 493100). In kind it is functional.
A short description of assay [28]: SFLLRN-induced P-Selectin Platelet Surface Expression Measured in Cell-Based System Using Flow Cytometry - 2016-03_Inhibitor_Dose_DryPowder_Activity_Set3. [Related pubchem assays (depositor defined):AID1678]. In kind it is functional.

One may read the AC50 as the midpoint of the concentration-response curve, whichever way the signal moves. A word on the EC50: it is the midpoint of the concentration-response curve. As usually defined, the IC50 is the midpoint of a concentration-inhibition curve.

COUP transcription factor 2, sequence (P24468 whole entry): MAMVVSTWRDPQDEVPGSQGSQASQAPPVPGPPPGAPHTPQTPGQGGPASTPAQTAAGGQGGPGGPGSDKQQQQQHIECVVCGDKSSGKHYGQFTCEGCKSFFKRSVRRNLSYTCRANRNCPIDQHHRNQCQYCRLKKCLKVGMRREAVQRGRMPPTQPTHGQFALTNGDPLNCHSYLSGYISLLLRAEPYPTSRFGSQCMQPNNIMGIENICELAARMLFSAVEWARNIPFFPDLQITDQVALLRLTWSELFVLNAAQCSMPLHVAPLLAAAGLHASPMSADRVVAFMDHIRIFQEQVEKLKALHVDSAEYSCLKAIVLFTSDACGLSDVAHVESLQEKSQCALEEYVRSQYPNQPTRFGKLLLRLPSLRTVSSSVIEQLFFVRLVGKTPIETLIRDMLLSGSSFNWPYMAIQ
Nucleotide-binding oligomerization domain-containing protein 2, sequence (Q9HC29 whole entry, the tested form may be a part): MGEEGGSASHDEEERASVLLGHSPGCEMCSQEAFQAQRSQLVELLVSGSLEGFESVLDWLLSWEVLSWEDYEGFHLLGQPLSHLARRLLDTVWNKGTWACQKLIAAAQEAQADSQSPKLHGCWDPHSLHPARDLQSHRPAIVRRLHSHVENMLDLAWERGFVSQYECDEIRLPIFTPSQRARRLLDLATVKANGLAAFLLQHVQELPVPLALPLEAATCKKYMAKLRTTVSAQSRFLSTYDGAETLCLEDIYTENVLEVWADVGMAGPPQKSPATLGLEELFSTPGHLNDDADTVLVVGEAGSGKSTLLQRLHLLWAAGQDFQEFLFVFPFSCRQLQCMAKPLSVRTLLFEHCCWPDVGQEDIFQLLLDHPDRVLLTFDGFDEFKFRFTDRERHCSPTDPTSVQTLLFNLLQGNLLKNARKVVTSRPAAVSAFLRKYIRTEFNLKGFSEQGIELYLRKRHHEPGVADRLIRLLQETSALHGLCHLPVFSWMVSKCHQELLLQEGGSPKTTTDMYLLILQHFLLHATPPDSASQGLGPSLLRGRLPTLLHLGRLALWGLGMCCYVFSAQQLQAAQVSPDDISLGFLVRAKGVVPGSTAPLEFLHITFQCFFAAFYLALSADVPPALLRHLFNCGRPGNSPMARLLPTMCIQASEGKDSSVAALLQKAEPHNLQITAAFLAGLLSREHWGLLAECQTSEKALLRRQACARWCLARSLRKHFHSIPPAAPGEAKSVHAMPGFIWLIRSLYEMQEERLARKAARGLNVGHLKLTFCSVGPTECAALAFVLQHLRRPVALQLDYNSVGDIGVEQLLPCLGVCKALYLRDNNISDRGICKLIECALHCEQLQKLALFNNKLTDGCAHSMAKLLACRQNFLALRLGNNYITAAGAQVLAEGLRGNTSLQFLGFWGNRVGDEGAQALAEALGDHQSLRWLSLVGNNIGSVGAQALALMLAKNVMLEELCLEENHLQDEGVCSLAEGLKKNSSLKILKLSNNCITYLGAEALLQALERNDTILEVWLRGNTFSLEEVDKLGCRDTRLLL
ATP-dependent molecular chaperone HSP82, sequence (C4YTQ8 whole entry): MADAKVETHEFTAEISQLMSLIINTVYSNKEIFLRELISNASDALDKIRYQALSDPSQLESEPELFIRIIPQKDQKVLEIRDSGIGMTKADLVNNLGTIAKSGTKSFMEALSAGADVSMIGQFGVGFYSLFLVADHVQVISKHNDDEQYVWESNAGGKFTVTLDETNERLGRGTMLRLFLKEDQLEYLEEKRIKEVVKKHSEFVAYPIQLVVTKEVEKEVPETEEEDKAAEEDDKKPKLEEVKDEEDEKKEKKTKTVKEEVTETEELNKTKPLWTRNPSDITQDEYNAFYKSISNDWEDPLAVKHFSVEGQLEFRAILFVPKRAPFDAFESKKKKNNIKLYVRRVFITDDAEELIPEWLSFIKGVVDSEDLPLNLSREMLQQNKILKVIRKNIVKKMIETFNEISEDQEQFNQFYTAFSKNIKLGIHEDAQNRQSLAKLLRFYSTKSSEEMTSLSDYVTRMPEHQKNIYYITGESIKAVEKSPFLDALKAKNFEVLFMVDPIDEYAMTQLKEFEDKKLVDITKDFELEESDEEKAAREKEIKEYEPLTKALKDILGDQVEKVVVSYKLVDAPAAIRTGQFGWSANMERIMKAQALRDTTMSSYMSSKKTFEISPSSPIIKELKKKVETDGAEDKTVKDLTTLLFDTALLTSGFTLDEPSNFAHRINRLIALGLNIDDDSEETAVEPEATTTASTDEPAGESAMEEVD

Turning to `COc1ccc(Cl)cc1CC1(C)C(=O)Nc2ccc(S(=O)(=O)NC3CCCCC3)cc21` (stereo not given), the AC50 in [1] was 0.749 µM (active); in [2], 1.07 µM (active); in assay [3], 3.04 µM (active); in assay [4] it was 0.768 µM (active). Also, the EC50 in the assay with HEK293 [5] and with HEK293 [6] was > 59.6 µM (inactive) throughout.

As to `Cn1nc(CC(=O)Nc2ccc3c(c2)OCCO3)c2ccccc2c1=O`, the AC50 in assay [7] is 55.8 µM (active); in [8], 0.899 µM (active); in assay [10] it was 3.62 µM (active); in assay [14] it was 1.36 µM (active); with INS1, 2.77 µM (active). Moreover, the 50% inhibitory concentration (IC50) is 0.797 µM (active) in [9]; 0.552 µM (active) in [11]; 6.56 µM (active) in assay [12]; > 80 µM (inactive) in [13]; > 80 µM (inactive) in the assay on Jurkat.

Take `COc1ccc(-n2nc(C(=O)NCC(=O)N3CCN(c4ccccc4)CC3)c3ccccc3c2=O)c(OC)c1`: the EC50 in assay [15] was > 180 µM (inactive); in assay [16] it was > 285 µM (inactive); in [17], > 160 µM (inactive); in assay [18] it was 0.819 µM (active); in assay [19], > 160 µM (inactive).

As for `CC(=O)c1ccc(Nc2nc3ccccc3nc2NS(=O)(=O)c2cccs2)cc1`, the IC50 is > 20 µM (inactive) with HEK293 [20], 15.6 µM (active) in the assay on HEK293 [23], > 20 µM (inactive) with HEK293 [24] and 9.59 µM (active) with HEK293 [25]. Moreover, the EC50 in the assay with HEK293 [21] is 8.18 µM (active); in [22], 6.47 µM (active).

Regarding `COc1ccc(C(=O)Nc2cccc(NC(C)=O)c2)cc1`, in assay [26], the EC50 is 3.96 µM (active). Moreover, the AC50 in [27] was 12.8 µM (active); in assay [28], 3.53 µM (active).
